Values of other authors, collected in US8507652B2, “Pharmaceutical composition, dressing and method for treating skin lesion, intermediate composition and process for preparing said dressing, and use of cerium salt associated with a collagen matrix” (priority 2008, dated 2013).

What was measured:
[1] = system: interleucin-6; details: lesions treated with cerium nitrate
[2] = system: 39 bacteria species; details: 39 bacteria species studied, in vitro
[3] = system: TNF-[…]; details: lesions treated with cerium nitrate

Which results are given for `O=[N+]([O-])[O-].O=[N+]([O-])[O-].O=[N+]([O-])[O-].[Ce+3]` [cerium nitrate]?
interleucin-6 level [1]: increase; concentration inhibiting growth [2]: ~0.0004 M; TNF-[…] level [3]: reduction
